pIC50, pKd: −log10 of the molar value.
Legend:
[1] = system: RWPE-1 Normal Prostate Cells; experiment: CellTiter-Glo 2D cell viability assay in normal prostate cells; format: cell-based; settings: Homo sapiens; RWPE-1 normal prostate cells, 72 hours
Procedure: (§1) Multiplexing the LDH-Glo Cytotoxicity Assay and CellTiter-Glo 2D Cell Viability Assay. […] Change in toxicity was measured using the LDH-Glo Cytotoxicity Assay by combining 50 μL diluted samples with 50 μL LDH Detection Reagent and recording luminescence after 1 hour incubation. After samples were removed for LDH measurement, an equal volume of CellTiter Glo 2D Reagent was added to the remaining cell suspension and luminescence was recorded after 30-minute incubation period.

CDK7/cyclinH = target: T1, CDK7/cyclinH (Homo sapiens, UniProt P50613); experiment: CDK family kinase profiling, radioisotope-based assay (33P); format: biochemical; settings: read-out: 10-dose IC50
T1 construct: purchased Reaction Biology
Procedure: (§2) CDKs family kinases profiling assays were performed with DiscoveRx Matrix of Kds KINOMEscan (KdELECT) and Reaction Biology using miniaturized radioisotope-based assay platform (^33P). IC50 value estimated based on the best curve fitting available.

CDK5/P21 = target: T2, CDK5/P21 (Homo sapiens, UniProt Q00535); experiment: as above; format: biochemical; settings: read-out: 10-dose IC50
T2 construct: purchased Reaction Biology
Procedure: as §2

CDK9/cyclinT = target: T3, CDK9/cyclinT (Homo sapiens, UniProt P50750); experiment: as above; format: biochemical; settings: cell-free, read-out: IC50 against CDK9
T3 construct: purchased Reaction Biology
Procedure: as §2

CDK4/cyclinD = CDK4/cyclinD (Homo sapiens, UniProt P11802); experiment: as above; format: biochemical; settings: read-out: 10-dose IC50
Procedure: as §2

[2] = system: RWPE-1 Normal Prostate Cells; experiment: LDH-Glo cytotoxicity assay in normal prostate cells; format: cell-based; settings: Homo sapiens, 72 hours
Procedure: as §1

[3] = system: 22RV1 induced neuroendocrine prostate cancer (NEPC) CDX; experiment: In vivo tumor efficacy study, 22Rv1 NEPC CDX
Procedure: 22Rv1 cells were cultured in RPMI supplemented with 10% FBS and 1% P/S, in a humidified incubator at 37° C. and 5% CO2. Nu/nu Balb/c homozygous mice were procured through Jackson laboratory (Strain 002019). Mice were fed Teklad irradiated (sterilized) mouse diet and bedded with Teklad irradiated (sterilized) corncob bedding from Envigo (Indianapolis, IN). Mice were housed in Optimice carousel sterile quarters with filtered air supply in disposable cages from Animal Care Systems, Inc. (Centennial, CO). A 12-hour light/12-hour dark light cycle is observed, with animal handling only taking place during the light cycle.
22Rv1 Implantation: On the day of implantation, cells were trypsinized and allowed to detach from flasks. Trypsin was then neutralized with complete media and cells were spun at 300×g. Media was aspirated and cells were re-suspended in 50:50 Cultrex RPMI (no supplementation) at a concentration of 5×10^7 cells/mL. A volume of 100 μL was injected into the right hind flank of each animal (a total of 5×10^6 cells per mouse). Cells were checked for viability using trypan blue exclusion and found to be >98% viable.
• All mice were dosed orally, and the observation duration was 21 days […]
Tumor volumes: Tumor volumes were measured by digital caliper, and volume was calculated using the formula [Width^2×Length]/2. All tumor volume measurements are recorded. […]

Haspin = Haspin (Homo sapiens, UniProt Q8TF76); experiment: scanMAX panel and Kd follow-up; format: binding
TAOK3 = TAOK3 (Homo sapiens, UniProt Q9H2K8); experiment: scanMAX panel and Kd follow-up; format: binding
C4-2 = experiment: Annexin V/7-AAD apoptosis assay; format: cell-based; settings: C4-2, treated for 72 hours
22Rv1 = experiment: Annexin V/7-AAD apoptosis assay; format: cell-based
[4] = system: C4-2 human neuroendocrine prostate cancer xenograft; experiment: In vivo tumor efficacy study 3, C4-2 xenograft
CDK9/CycT1 = target: T4, CDK9/CycT1 (Homo sapiens, UniProt P50750); experiment: ADP-Glo kinase assay; format: biochemical
T4 construct: purchased SignalChem
Procedure: ADP-Glo assay kit was purchased from Promega and the CDK9/CycT1 protein and PDKtide substrate were purchased from SignalChem. […] The reaction was started by pre-incubating 4 μL of protein (20 nM), 2 μL of substrate (100 μM), and 2 μL of serial diluted drug in 1× assay buffer (50 mM HEPES, 3 mM MgCl2, 3 mM MnCl2, and 1 mM DTT) for 30 minutes. After pre-incubating, 4 μL of ATP (1 μM) was added to each well and incubated for an additional 90 minutes. The ADP-Glo Reagent (10 μL) and Kinase Detection Reagent (20 μL) were added to each well and incubated as recommended by Promega. The reaction was quantified by measuring luminescence and the IC50 was calculated using GraphPad Prism software.

ERK8 = ERK8 (Homo sapiens, UniProt Q8TD08); experiment: scanMAX panel and Kd follow-up; format: binding
CDK9 = CDK9 (Homo sapiens, UniProt P50750); experiment: DiscoveRx KINOMEscan (KdELECT, scanMAX panel); format: binding
Procedure: as §2

hERG channel = target: T5, hERG channel (Homo sapiens, UniProt Q12809); experiment: Predictor hERG Fluorescence Polarization Assay; format: binding
T5 construct: purchased
Excerpt: The Predictor™ hERG Fluorescence Polarization Assay Kit was used to perform hERG channel biochemical binding studies in the absence of radioligand. Assay performance was validated with a panel of established hERG channel blockers.

TAOK1 = TAOK1 (Homo sapiens, UniProt Q7L7X3); experiment: scanMAX panel and Kd follow-up; format: binding
Chain of TAOK1 (Q7L7X3 whole entry): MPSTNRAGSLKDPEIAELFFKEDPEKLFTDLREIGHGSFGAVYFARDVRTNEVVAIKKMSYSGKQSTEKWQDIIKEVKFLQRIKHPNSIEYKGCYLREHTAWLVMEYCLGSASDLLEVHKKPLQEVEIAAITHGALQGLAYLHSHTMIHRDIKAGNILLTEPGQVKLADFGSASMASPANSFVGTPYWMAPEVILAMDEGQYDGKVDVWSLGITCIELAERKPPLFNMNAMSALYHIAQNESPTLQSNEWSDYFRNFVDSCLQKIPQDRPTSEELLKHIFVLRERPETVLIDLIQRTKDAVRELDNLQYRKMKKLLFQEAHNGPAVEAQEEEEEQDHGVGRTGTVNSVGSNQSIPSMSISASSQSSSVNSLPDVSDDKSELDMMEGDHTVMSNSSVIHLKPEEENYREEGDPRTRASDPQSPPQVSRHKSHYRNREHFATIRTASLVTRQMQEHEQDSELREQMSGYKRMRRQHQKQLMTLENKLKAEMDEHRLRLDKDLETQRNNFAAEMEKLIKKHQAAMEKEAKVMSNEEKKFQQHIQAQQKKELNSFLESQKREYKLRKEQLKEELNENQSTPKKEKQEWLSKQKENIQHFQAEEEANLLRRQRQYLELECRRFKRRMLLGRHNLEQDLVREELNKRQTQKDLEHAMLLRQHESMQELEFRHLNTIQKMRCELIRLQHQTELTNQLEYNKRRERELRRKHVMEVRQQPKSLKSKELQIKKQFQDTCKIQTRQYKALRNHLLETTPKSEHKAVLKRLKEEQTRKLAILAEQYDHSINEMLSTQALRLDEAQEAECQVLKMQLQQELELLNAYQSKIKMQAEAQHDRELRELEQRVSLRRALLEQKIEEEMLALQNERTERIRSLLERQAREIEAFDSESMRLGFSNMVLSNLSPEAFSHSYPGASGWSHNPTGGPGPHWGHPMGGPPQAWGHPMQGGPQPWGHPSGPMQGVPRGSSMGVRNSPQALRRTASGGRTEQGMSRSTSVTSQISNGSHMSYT

T5 sequence (Q12809 whole entry): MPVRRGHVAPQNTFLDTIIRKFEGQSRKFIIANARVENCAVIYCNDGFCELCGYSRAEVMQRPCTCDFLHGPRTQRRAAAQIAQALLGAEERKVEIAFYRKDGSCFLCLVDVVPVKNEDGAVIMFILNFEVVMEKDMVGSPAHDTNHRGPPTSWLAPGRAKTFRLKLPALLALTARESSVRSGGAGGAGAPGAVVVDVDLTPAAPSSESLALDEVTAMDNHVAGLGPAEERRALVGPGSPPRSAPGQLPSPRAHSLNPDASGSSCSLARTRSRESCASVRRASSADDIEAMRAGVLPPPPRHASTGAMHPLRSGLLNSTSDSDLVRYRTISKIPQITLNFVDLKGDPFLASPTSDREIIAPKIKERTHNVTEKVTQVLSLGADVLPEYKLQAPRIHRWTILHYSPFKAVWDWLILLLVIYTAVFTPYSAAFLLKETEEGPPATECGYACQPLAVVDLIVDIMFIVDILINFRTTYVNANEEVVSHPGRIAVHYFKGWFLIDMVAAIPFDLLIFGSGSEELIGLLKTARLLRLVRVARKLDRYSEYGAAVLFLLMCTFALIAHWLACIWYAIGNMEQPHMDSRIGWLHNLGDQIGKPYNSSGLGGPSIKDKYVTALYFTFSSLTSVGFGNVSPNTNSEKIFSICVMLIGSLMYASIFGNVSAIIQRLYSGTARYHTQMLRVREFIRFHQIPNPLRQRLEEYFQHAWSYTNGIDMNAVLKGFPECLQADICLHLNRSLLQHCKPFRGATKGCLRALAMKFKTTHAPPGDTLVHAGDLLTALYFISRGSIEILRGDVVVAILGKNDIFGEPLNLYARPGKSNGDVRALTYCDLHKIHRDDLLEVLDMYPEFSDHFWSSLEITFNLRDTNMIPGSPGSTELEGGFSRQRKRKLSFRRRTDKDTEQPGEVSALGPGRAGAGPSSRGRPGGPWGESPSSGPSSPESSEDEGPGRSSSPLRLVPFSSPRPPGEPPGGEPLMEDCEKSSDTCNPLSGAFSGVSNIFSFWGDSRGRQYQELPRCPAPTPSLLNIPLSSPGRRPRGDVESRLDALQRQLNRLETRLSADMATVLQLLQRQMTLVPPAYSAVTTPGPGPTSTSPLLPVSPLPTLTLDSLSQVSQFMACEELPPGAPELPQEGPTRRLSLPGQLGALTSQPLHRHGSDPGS
Chain of CDK9 (P50750 whole entry): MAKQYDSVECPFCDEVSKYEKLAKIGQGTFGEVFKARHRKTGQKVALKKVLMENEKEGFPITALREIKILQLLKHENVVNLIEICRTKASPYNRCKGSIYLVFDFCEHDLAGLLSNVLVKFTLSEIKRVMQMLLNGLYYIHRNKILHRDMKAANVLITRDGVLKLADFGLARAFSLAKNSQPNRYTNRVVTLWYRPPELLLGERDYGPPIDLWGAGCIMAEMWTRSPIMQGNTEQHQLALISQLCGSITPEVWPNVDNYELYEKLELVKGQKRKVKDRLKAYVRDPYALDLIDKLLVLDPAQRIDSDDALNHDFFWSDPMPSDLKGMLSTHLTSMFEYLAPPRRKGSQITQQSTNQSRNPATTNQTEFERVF
Chain of TAOK3 (Q9H2K8 whole entry): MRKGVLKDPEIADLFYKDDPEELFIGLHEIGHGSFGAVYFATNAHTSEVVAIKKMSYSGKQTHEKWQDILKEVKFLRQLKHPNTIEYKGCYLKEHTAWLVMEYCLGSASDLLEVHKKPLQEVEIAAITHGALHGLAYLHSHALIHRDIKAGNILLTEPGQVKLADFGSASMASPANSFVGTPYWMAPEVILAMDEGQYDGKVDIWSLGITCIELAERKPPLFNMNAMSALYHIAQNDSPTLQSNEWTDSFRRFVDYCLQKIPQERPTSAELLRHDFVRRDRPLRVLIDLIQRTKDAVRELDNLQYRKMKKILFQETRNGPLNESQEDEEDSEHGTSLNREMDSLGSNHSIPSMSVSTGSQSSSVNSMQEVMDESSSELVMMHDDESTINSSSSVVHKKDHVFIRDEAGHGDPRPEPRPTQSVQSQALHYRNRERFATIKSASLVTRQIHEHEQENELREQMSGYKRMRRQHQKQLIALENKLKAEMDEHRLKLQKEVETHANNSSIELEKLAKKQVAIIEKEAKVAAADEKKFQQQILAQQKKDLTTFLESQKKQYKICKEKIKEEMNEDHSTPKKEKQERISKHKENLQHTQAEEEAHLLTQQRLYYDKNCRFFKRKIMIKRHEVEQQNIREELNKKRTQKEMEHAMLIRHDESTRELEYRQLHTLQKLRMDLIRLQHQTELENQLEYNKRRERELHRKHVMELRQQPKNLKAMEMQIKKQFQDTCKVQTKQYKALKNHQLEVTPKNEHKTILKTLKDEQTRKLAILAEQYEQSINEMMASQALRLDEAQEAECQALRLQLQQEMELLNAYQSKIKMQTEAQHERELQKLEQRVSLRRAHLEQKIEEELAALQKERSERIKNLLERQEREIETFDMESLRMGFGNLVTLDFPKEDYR
Chain of Haspin (Q8TF76 whole entry): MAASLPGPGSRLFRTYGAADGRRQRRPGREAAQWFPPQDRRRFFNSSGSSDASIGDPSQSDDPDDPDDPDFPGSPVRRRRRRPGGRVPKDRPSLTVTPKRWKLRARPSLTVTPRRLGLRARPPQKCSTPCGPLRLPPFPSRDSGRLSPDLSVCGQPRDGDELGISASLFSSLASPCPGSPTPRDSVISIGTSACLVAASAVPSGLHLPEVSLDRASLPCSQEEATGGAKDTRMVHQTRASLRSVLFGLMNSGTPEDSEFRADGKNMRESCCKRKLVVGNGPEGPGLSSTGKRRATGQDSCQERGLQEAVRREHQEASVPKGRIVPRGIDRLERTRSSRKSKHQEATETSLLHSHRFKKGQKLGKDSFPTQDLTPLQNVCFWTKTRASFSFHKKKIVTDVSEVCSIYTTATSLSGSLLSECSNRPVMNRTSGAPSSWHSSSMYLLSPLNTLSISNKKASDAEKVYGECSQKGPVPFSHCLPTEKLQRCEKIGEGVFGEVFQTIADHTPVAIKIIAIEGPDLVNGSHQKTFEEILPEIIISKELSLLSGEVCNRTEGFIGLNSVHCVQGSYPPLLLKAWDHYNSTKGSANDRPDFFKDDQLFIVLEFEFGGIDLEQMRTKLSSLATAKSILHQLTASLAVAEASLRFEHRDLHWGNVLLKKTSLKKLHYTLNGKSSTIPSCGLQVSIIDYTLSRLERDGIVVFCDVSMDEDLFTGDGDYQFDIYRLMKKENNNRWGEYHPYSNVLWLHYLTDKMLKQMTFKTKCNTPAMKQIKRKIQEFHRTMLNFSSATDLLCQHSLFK
Chain of ERK8 (Q8TD08 whole entry): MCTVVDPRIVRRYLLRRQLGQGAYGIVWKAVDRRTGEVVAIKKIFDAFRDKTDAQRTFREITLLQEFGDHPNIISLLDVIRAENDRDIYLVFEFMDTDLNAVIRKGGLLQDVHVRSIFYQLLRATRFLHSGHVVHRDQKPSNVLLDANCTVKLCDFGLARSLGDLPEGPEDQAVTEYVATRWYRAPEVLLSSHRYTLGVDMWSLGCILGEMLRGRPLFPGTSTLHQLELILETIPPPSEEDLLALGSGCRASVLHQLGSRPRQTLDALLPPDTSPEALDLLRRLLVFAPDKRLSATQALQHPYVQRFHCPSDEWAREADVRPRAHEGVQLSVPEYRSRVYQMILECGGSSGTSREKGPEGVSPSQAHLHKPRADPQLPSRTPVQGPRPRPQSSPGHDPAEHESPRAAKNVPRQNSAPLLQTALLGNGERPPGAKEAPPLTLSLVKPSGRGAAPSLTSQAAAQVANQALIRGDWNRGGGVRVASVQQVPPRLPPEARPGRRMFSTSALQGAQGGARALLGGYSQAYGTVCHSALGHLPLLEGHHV

## CC(C)c1c2cc(-c3ccnc(N[C@H]4CC[C@H](N)C4)n3)ccc2nn1C [Compound I-2, (1S,3S)-[3-[4-(3-isopropyl-2-methylindazol-5-yl)pyrimidin-2-yl]aminocyclopentan-1-yl]-1,3-diamine]
[1]
  pIC50: 5.28
CDK7/cyclinH
  pIC50: 6.92
CDK5/P21
  pIC50: 6.61
CDK9/cyclinT
  pIC50: > 8.30
CDK4/cyclinD
  pIC50: 7.64
[2]
  pIC50: 5.17
[3]; 22Rv1, 30, 50, 65 mg/kg orally once daily, 21 days
  tumor growth: inhibit tumor growth in a dose dependent manner
[3]; 22Rv1 study, >50 mg/kg dosing levels
  tolerability: Tolerability issues
Haspin
  pKd: 8.55
Haspin; 1 μM, read-out: % of control activity
  remaining binding at 1 µM: 0 to 1%
TAOK3; TAOK3
  pKd: 8.04
TAOK3; TAOK3, 1 μM, read-out: % of control activity
  remaining binding at 1 µM: 0 to 1%
C4-2
  cell death: 84%
22Rv1; 22Rv1
  apoptosis by Annexin V/7-AAD staining: increased apoptosis in a dose dependent manner
22Rv1; 22Rv1, treated for 72 hours
  cell death: 71%
[4]; C4-2, 50-30 mg/kg p.o., day 21
  decrease in tumor weight as compared to vehicle control group: 48.72%
[4]; C4-2, 50-30 mg/kg p.o., days 18 to 21
  tumor volume as compared to vehicle control group: significant decrease tumor volume
[4]; C4-2, 50-30 mg/kg p.o., terminal day 21
  tumor growth inhibition from vehicle control group: 43.25%
[4]; C4-2 study, 50-30 mg/kg p.o., starting at day 4
  body weight as compared to vehicle control group: significant body weight loss
[4]; C4-2 study, mouse that died
  severe body weight loss: ~15%
CDK9/CycT1
  pIC50: > 7.30
ERK8; ERK8
  pKd: 8.26
ERK8; ERK8, 1 μM, read-out: % of control activity
  remaining binding at 1 µM: 0 to 1%
CDK9; CDK9, 1 μM
  activity in scanMAX panel: 2.7%
CDK9; CDK9/cyclinT
  pKd: 8.38
hERG channel
  hERG activity: no hERG activity
hERG channel; fluorescence polarization
  pIC50: 4.24
TAOK1; TAOK1
  pKd: 7.72
TAOK1; TAOK1, 1 μM, read-out: % of control activity
  remaining binding at 1 µM: 0 to 1%

— patent US20240150322A1, “CDK9 Inhibitors” (Biolexis Therapeutics, Inc., priority 2022, published 2024)
